The values that follow come from ChEMBL document CHEMBL1201862, “PubChem BioAssay data set” (2004).

The target of experiment [1] is T1, Protein skinhead-1 (Caenorhabditis elegans, UniProt P34707).
T1 sequence (P34707 whole entry): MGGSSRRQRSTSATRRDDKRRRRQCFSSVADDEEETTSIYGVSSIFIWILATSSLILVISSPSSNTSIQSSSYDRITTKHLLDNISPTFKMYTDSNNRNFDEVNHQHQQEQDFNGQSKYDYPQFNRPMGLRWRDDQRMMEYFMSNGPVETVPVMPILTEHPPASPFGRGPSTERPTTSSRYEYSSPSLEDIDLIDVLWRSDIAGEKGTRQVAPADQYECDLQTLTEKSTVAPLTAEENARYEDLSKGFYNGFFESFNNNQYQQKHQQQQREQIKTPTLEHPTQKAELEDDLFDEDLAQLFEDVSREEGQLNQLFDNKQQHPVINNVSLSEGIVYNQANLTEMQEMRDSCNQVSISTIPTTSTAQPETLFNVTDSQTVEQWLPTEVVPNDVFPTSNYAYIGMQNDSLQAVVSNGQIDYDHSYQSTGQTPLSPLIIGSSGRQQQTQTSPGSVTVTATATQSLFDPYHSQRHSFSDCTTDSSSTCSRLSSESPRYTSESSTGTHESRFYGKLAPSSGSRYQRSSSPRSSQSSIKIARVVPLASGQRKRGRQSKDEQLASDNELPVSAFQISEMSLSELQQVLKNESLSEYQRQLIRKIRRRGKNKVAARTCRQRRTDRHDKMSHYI
It is filed as functional.

Experiment [2] can be described thus: microbe, parasite or virus in culture. The format is functional. The note with it: Mycobacterium tuberculosis.
Experiment [3] has as its target T2, RNA-binding protein pos-1 (Caenorhabditis elegans, UniProt G5EF15).
T2 sequence (G5EF15 whole entry): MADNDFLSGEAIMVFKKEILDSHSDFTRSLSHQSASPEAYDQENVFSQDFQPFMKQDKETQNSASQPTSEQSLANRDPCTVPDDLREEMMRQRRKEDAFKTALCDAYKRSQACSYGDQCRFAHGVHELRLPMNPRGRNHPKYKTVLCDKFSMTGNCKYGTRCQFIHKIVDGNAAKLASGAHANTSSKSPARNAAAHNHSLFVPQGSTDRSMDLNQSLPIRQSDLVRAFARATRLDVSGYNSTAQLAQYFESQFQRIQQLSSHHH
Put plainly: disruptors of C. elegans POS-1 RNA interaction – biochemical, fluorescence polarization, dose response (AID 1964).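 Note: purified POS-1 fused to maltose binding protein made in E. coli; potency of compounds blocking POS-1 binding to fluorescent RNA.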

Experiment [4] deals with T3, Zinc finger protein mex-5 (Caenorhabditis elegans, UniProt Q9XUB2).
T3 sequence (Q9XUB2 whole entry): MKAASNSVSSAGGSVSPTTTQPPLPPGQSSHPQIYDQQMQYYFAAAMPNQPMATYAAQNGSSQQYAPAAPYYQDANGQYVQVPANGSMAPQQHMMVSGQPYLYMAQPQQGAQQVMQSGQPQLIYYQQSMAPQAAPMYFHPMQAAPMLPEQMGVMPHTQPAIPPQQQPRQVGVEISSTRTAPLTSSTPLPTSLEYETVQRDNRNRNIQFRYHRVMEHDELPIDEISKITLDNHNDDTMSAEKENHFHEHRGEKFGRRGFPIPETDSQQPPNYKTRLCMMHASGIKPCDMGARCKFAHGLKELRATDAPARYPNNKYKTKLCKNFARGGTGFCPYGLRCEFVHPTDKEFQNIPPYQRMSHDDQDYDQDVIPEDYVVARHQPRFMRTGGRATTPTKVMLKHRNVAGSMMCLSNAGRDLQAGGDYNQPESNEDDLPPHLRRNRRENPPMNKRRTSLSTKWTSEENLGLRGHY
Put plainly: potency of MEX-5 RNA-binding blockers – biochemical, C. elegans, fluorescence polarization, dose response (AID 1960).

Experiment [5] concerns INS1. Put plainly: INS-1E survival protection against cytokine death – cell-based, luminescence, retest, dose response (AID 449756).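 Note: cell death triggered by IL-1 beta plus TNF-alpha plus IFN-gamma mixture; protective hits raise ATP signal compared with cytokine alone wells.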 Conditions: Rattus norvegicus. It is filed as functional.
A short description of experiment [6]: Luminescence Cell-Based Dose Response HTS to Identify Inhibitors of 5'UTR Stem-Loop Driven Prion Protein mRNA Translation in H4 Neuroglioblastoma Cells. [Related pubchem assays: 1827 (Project Summary), 1813 (Primary HTS)]. It is filed as functional.
A short description of experiment [7]: luciferase reporter signal suppression in cells – H4 neuroglioma cells, luminescence, dose response (AID 1990). The format is functional, cell-based.
A short description of experiment [8]: alpha-synuclein stem-loop luciferase translation blockers – H4 neuroglioma cells, luminescence, confirmation (AID 1988). The format is functional, cell-based.
Experiment [9] is described as follows: viability of uninfected HEp-2 cells – cell-based, HTS, cytotoxicity control for RSV inhibitor project, dose response (AID 2410). The format is functional. The note with it: human respiratory syncytial virus.
Experiment [10] is described as follows: Trypanosoma cruzi growth suppression in host cells – NIH3T3 host cells, beta-gal luminescence, confirmation (AID 2044).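 Note: intracellular parasites grown in NIH/3T3 mouse fibroblasts as host cells; luminescent beta-galactosidase reporter signal from transgenic T. cruzi replicating inside host cells; inhibitors lower the luminescence signal.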 It is filed as functional, cell-based.
Experiment [11] can be described thus: NIH3T3 cell viability loss – ATP luminescence, mouse fibroblasts, counter-screen, dose response (AID 2010).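 Note: cells exposed to compound for about 90 hours before reading.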 It is filed as functional, cell-based.
Experiment [12] deals with T4, Cytochrome P450 1A2 (Homo sapiens, UniProt P05177).
T4 sequence (P05177 whole entry): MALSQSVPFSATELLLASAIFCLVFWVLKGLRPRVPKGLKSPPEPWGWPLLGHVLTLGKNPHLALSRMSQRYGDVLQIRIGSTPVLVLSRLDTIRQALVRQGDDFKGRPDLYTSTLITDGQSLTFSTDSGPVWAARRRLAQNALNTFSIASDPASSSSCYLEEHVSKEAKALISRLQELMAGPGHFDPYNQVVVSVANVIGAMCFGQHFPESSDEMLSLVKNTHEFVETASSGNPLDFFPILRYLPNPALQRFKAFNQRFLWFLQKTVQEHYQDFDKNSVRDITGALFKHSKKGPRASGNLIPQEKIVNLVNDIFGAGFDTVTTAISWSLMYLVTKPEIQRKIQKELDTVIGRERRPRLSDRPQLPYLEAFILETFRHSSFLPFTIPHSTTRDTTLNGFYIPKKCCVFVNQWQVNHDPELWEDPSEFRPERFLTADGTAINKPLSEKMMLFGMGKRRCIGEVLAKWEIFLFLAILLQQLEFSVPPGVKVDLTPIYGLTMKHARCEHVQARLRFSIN

For experiment [13], the target named is Cytochrome P450 2D6 (Homo sapiens, UniProt P10635).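 Note: CYP2D6 member of a cytochrome P450 panel assay.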
Experiment [14] addresses Cytochrome P450 3A4 (Homo sapiens, UniProt P08684).
For experiment [15], the target named is T5, Corticotropin-releasing factor receptor 2/Corticotropin-releasing factor-binding protein (Homo sapiens, UniProt P24387+Q13324).
T5 sequence (Q13324 whole entry): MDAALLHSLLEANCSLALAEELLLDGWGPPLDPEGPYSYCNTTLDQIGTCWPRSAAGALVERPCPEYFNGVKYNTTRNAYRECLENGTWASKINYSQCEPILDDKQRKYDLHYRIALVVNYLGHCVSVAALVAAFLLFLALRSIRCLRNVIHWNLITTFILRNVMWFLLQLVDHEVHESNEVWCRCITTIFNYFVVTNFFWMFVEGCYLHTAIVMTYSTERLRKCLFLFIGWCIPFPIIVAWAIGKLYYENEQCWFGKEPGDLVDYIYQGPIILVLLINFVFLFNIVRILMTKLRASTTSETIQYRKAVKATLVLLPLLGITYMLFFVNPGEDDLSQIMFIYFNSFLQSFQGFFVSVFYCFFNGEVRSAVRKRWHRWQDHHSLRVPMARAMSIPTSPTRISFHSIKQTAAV
T5 sequence (P24387 whole entry): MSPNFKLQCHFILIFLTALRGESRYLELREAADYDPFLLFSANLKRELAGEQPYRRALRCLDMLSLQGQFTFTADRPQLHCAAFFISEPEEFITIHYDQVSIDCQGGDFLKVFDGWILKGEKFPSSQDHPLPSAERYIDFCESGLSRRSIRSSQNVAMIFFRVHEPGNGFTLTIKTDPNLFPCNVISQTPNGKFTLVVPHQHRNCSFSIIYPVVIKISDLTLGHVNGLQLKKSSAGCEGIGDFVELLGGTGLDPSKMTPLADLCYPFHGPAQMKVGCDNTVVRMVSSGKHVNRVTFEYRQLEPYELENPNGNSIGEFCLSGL
Put plainly: activators of CRF receptor 2 with binding protein – uHTS hits, confirmation (AID 602473). The format is functional. The note with it: read-out: EC50_Mean.

Experiment [16] concerns the target T5, Corticotropin-releasing factor receptor 2/Corticotropin-releasing factor-binding protein. Put plainly: Dose Response confirmation of uHTS hits for small molecule antagonists of the CRF-binding protein and CRF-R2 receptor complex. The format is functional. The note with it: read-out: IC50_Mean.

SMILES strings stand for the structures. Active and inactive are the calls of the source.

Cytochrome P450 2D6, sequence (P10635 whole entry): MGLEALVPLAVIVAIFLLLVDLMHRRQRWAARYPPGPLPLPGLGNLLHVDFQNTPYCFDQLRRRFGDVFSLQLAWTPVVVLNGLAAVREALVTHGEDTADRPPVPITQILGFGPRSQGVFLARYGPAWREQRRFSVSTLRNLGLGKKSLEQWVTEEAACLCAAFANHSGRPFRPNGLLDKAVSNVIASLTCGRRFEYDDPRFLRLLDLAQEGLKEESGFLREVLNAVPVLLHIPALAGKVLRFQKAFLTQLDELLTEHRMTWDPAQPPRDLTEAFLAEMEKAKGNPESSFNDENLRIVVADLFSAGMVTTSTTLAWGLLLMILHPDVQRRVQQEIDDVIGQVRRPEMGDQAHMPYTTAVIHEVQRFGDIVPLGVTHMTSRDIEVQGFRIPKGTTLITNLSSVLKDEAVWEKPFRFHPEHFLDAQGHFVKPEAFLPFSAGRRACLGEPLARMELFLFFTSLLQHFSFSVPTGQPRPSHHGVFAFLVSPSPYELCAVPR
Cytochrome P450 3A4, sequence (P08684 whole entry): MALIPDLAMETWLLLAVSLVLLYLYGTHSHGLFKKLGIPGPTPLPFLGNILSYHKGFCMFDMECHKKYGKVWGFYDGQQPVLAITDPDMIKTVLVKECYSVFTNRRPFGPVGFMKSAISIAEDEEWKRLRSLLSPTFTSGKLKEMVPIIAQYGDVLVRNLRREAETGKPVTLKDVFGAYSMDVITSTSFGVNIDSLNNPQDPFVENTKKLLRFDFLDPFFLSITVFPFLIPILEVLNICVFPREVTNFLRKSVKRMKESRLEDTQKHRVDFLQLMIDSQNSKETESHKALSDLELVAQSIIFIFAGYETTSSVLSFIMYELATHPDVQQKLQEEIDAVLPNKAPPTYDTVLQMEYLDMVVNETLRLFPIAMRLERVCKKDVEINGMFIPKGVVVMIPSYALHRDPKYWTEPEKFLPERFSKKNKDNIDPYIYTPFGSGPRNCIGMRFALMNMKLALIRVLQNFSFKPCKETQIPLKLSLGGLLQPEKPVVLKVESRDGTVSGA

Take `c1ccc(-c2csc(-c3ccncc3)n2)cc1`: in experiment [1], the IC50 is 4.05 µM (active).

Consider `COc1ccc(NCc2n[nH]nc2-c2ccccc2)cc1Cl`, for which, in [2], the CC50 is > 40 µM (active).

Take `O=C1NC(=O)N(CC2CCCO2)C(=O)/C1=C/c1c[nH]c2ccccc12` (stereo not given): the EC50 in experiment [3] and in experiment [4] was > 300 µM (not active) each time.

As for `O=C1C(C2=NC(c3ccccn3)C3C(=O)N(c4ccc(OC(F)(F)F)cc4)C(=O)C23)=C(O)c2ccccc21` (stereo not given), in experiment [5], the AC50 is 5.71 µM (active).

Consider `CCn1cc(C=C2C(=O)NC(=O)NC2=O)c2ccccc21`, for which the EC50 was 28.7 µM (inconclusive) in experiment [3] and > 300 µM (inconclusive) in experiment [4].

As to `CCCCn1c2c(c(=O)n(C)c1=O)C(c1ccc(OC)cc1)N1CCCCCC1=N2` (stereo not given), the EC50 in experiment [6] is > 120 µM (not active); in [7], 39.2 µM (active); in experiment [8] it was > 120 µM (not active).

With `COc1ccc(/C=C/C(=O)Nc2ccc(-n3nncc3-c3ccc(OC)c(OC)c3)cc2)cc1OC`, the EC50 is > 120 µM (not active) in experiment [6], 23.4 µM (active) in experiment [7] and 16.5 µM (active) in [8].

For the compound `COc1ccc(-c2c[nH]nc2-c2ccc(OCC(=O)NN)cc2O)cc1OC`, the EC50 is > 300 µM (not active) in experiment [3] and 2.07 µM (active) in [4].

Take `CCCCCCCCOc1ccc(C2OC34CCCCC3C(C#N)(C#N)C2(C#N)C(=N)O4)cc1` (stereo not given): the EC50 was 13 µM (active) in experiment [3] and 11.8 µM (active) in experiment [4].

On to `COc1ccccc1N1CC(C)(C)C(=O)N(C(=O)c2ccc(Cl)cc2)C1=S`, for which the AC50 in experiment [5] is > 260 µM (inactive).

Regarding `CCCSc1nnc(N2C(=O)C(O)=C(C(=O)c3ccco3)C2c2ccccc2F)s1` (stereo not given), the EC50 is > 300 µM (inconclusive) in experiment [3] and > 300 µM (not active) in [4].

Turning to `Cc1cc(=O)n2c(c1C#N)SC1CCCCC12O` (stereo not given), the EC50 in experiment [6], in experiment [7] and in experiment [8] was > 120 µM (not active) throughout.

Consider `COc1ccc(N/C(=C(/C(Cl)=C(Cl)Cl)[N+](=O)[O-])n2nnc3ccccc32)cc1`, for which the values for the EC50 in experiment [3] and in experiment [4] were 88.5 µM (active) and 49.1 µM (inconclusive), respectively.

For the compound `COCC(C)n1c(SCc2cc(=O)n3cc(C)ccc3n2)nc2ccccc2c1=O` (stereo not given), the EC50 is 12.6 µM (active) in experiment [6], > 120 µM (not active) in [7] and > 120 µM (not active) in experiment [8]. The CC50 in experiment [9] was 49.5 µM (active).

On to `Cc1ccccc1N/N=C/c1c(C)nc2ccccn12`, for which the CC50 in [9] was 33.2 µM (active); in [2], > 40 µM (active).

Turning to `Cc1cc(C(=O)Nc2ccc(CC(=O)O)cc2)c(C)o1`, the EC50 was 23.1 µM (active) in experiment [6], 12.9 µM (active) in experiment [7] and 18.1 µM (active) in experiment [8].

For the compound `Cc1ccc(/C=N/Nc2ccnc3cc(Cl)ccc23)c(C)c1`, the values for the EC50 in [10] and in [11] were 0.672 µM (active) and > 60 µM (not active), respectively. In addition, the AC50 in experiment [5] was 6.15 µM (active).

Take `CCCC(=O)Nc1ccc(C(=O)/C=C/c2ccc(SC)cc2)cc1`: the results for the AC50 in experiment [12], in experiment [13] and in [14] were 12.6 µM (inconclusive), 7.94 µM (inconclusive) and 3.16 µM (inconclusive), respectively. Also, the CC50 in experiment [2] is > 40 µM (active).

In the case of `Cc1ccc2c(c1)cc1c(=O)n(CC(=O)NCc3ccccn3)nc(C)n12`, the EC50 in experiment [6], in experiment [7] and in experiment [8] was > 120 µM (not active) throughout.

Turning to `CCCC(=O)c1c(NC(C)C)cc(C)oc1=O`, the EC50 in experiment [6], in experiment [7] and in experiment [8] was > 120 µM (not active) throughout.

As to `CCOCCCn1/c(=N/C(C)=O)c(C#N)cc2c(=O)n3ccccc3nc21`, the EC50 in [3] and in [4] was > 300 µM (not active) each time.

As for `O=C(/C=C/c1ccc(OCCCF)cc1)Nc1ccnc(-c2cccnc2)n1`, the figures for the EC50 in experiment [3] and in [4] were 22.8 µM (active) and 20.6 µM (active), respectively.

Regarding `O=C(NCC1CCCO1)C1CCCN1C(=O)NC1CCCCC1` (stereo not given), the EC50 in experiment [15] is > 53 µM (inactive). Also, the IC50 in [16] was > 47.1 µM (inactive).

For `O=C(Nc1nn[nH]n1)c1cccc([N+](=O)[O-])c1`, the EC50 in [6], in [7] and in experiment [8] was > 120 µM (not active) throughout.

`O=[N+]([O-])c1ccc(N2CCOCC2)cc1NCc1ccccc1`: the EC50 in experiment [15] is > 53 µM (inactive). Besides, the IC50 in experiment [16] is > 47.1 µM (inactive).

Consider `Cc1cc(C(=O)O)ccc1-n1c(C)cc(/C=C2\SC(=O)NC2=O)c1C`, for which the EC50 in experiment [3] and in experiment [4] was > 300 µM (not active) each time.
